Assay results taken from patent publication EP1333824B1, “TREATMENT OF SEXUAL DYSFUNCTION WITH BOMBESIN RECEPTOR ANTAGONISTS” (Warner-Lambert Company LLC, priority 2000, dated 2002).
Blank lines part the entries; values can stand above or below the compound they belong to.

How the values were obtained:
[1] = tested on: Female New Zealand rabbits; assay: Pelvic nerve-stimulated female genital blood flow, anaesthetised rabbit model of sexual arousal; assay type: in vivo
Method: Female New Zealand rabbits (~2.5kg) were pre-medicated with a combination of Medetomidine (Domitor®) 0.5ml/kg i.m., and Ketamine (Vetalar®) 0.25ml/kg i.m. whilst maintaining oxygen intake via a face mask. The rabbits were tracheotomised using a Portex™ uncuffed endotracheal tube 3 ID., connected to ventilator and maintained at a ventilation rate of 30-40 breaths per minute, with an approximate tidal volume of 18-20 ml, and a maximum airway pressure of 10 cm H2O. Anaesthesia was then switched to Isoflurane and ventilation continued with O2 at 21/min. The right marginal ear vein was cannulated using a 23G or 24G catheter, and Lactated Ringer solution perfused at 0.5ml/min. The rabbit was maintained at 3% Isoflurane during invasive surgery, dropping to 2% for maintenance anaesthesia.
The left groin area of the rabbit was shaved and a vertical incision was made approximately 5cm in length along the thigh. The femoral vein and artery were exposed, isolated and then cannulated with a PVC catheter (17G) for the infusion of drugs and compounds. Cannulation was repeated for the femoral artery, inserting the catheter to a depth of 10cm to ensure that the catheter reached the abdominal aorta. This arterial catheter was linked to a Gould system to record blood pressure. Samples for blood gas analysis were also taken via the arterial catheter. Systolic and diastolic pressures were measured, and the mean arterial pressure calculated using the formula (diastolic x2 + systolic) ö3. Heart rate was measured via the pulse oxymeter and Po-ne-mah data acquisition software system (Ponemah Physiology Platform, Gould Instrument Systems Inc). A ventral midline incision was made into the abdominal cavity. The incision was about 5cm in length just above the pubis. The fat and muscle was bluntly dissected away to reveal the hypogastric nerve which runs down the body cavity. It was essential to keep close to the side curve of the pubis wall in order to avoid damaging the femoral vein and artery which lie above the pubis. The sciatic and pelvic nerves lie deeper and were located after further dissection on the dorsal side of the rabbit. Once the sciatic nerve is identified, the pelvic nerve was easily located. The term pelvic nerve is loosely applied; anatomy books on the subject fail to identify the nerves in sufficient detail. However, stimulation of the nerve causes an increase in vaginal and clitoral blood flow, and innervation of the pelvic region. The pelvic nerve was freed away from surrounding tissue and a Harvard bipolar stimulating electrode was placed around the nerve. […] A frequency response curve was determined at the start of each experiment in order to determine the optimum frequency to use as a sub-maximal response, normally 4Hz. […]

conscious male rat = assay: Penile intracavernosal pressure in the conscious male rat (telemetry); assay type: in vivo
Method: In addition to treating women with FSD, bombesin antagonists will be useful in treating male erectile dysfunction (MED. Both the non-selective BB1/2 antagonists (Compound 1; 10mg/kg sc) and the selective BB1 receptor antagonist (Compound 3; 15mg/kg sc) is pro-erectile in a conscious rat model of penile erection (Figures 24 and 25). Erectile responses were recorded by measuring intracavernosal pressure using surgically implanted telemetric device. The specific details the surgical procedures, data acquisition and analysis can be found in detail in Bemabe 1999.
Compound 1 and compound 3 were dissolved in 50% β-cyclodextrin in saline. They were administered at a dose of 15mg/kg subcutaneously (sc). […] These increases equate to penile erection. Both Compounds 1 and 3 induced a number of erections in a similar manner to those observed with apomorphine or melanotan-II - both of which are clinically proven agents that are effective in the treatment of MED. Moreover the amplitude of the increases observed were similar to those observed with apomorphine or melanotan-II. The mechanism of action is thought to be similar to the effects on female genital flow ie CNS potentiation of the descending neuronal pathways that control penile erection.

human NMB receptor (BB1) = target: T1, human NMB receptor (BB1) (Homo sapiens, UniProt P28336); assay: BB1 binding assay ([125I][Tyr4]bombesin, CHO-K1 cell membranes)
T1 construct: expressed in transfected cells
Method: (§1) In the following experiments, measurement of BB1 and BB2 binding was as follows. […] The final pellet was resuspended in assay buffer to a final cell concentration of 1.5 × 10^5/mL. […] Nonspecific binding was defined by 1µM bombesin. […] Radioactivity bound was determined using a gamma counter.
(§2) All competition data was analysed using nonlinear regression utilizing iterative curve-plotting procedures in Prism® (GraphPad Software Inc., San Diego, USA).

human GRP receptor (BB2) = target: T2, human GRP receptor (BB2) (Homo sapiens, UniProt P30550); assay: BB2 binding assay ([125I][Tyr4]bombesin, CHO-K1 cell membranes)
T2 construct: expressed in transfected cells
Method: as §1, §2

[2] = Table 7, N-terminal sulfonamide derivatives

T1 sequence (P28336 whole entry): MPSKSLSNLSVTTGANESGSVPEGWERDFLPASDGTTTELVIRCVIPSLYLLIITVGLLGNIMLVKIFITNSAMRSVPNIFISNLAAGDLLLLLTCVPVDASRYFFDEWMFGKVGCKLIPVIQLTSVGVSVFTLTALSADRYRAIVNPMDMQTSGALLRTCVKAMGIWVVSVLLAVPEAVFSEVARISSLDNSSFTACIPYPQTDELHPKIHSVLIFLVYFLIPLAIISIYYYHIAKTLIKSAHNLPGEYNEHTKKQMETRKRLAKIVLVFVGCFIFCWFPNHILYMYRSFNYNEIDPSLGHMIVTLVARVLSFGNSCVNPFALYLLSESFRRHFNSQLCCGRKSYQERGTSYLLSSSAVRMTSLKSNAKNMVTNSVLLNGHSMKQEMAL
T2 sequence (P30550 whole entry): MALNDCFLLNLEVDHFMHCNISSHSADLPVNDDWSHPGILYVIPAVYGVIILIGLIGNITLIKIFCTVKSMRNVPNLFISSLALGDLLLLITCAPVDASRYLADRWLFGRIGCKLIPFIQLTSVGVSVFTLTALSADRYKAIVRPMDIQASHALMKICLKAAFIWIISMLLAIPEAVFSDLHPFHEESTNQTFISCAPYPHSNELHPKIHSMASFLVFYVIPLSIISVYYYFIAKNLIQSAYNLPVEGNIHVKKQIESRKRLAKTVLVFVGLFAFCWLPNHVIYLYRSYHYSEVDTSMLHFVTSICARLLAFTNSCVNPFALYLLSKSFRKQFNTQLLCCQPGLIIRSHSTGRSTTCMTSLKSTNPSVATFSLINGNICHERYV

Compound: C[C@@](Cc1c[nH]c2ccccc12)(NC(=O)Nc1ccc([N+](=O)[O-])cc1)C(=O)NCC1(c2ccc(N)cc2)CCCCC1 [Compound 3, (2S)-N-{[1-(4-aminophenyl)cyclohexyl]methyl}-3-(1H-indol-3-yl)-2-methyl-2-{[(4-nitroanilino)-carbonyl]amino}propanamide]
basal genital blood flow in the absence of PNS ([1]; 15mg/kg sc): no effect
pelvic-nerve stimulated (PNS) increases in genital (vaginal and clitoral) blood flow ([1]; 15mg/kg sc in 50% β-cyclodextrin in saline): potent enhancer
erectile response (penile erection) (conscious male rat; Compound 1 10mg/kg sc, Compound 3 15mg/kg sc): pro-erectile
intracavernosal pressure (conscious male rat; one hour after 10mg/kg sc Compound 1, 45 minutes after 15mg/kg sc compound 3): significant increases in intracavernosal pressure

IC50 (human NMB receptor (BB1); Table 3, N-acyl derivatives): 2500 nM
Compound: C[C@@](Cc1c[nH]c2ccccc12)(NC(=O)c1ccccc1)C(=O)NCC1(c2ccccn2)CCCCC1 [Example 32, N-{(S)-2-(1H-Indol-3-yl)-1-methyl-1-[(1-pyridin-2-yl-cyclohexylmethyl)-carbamoyl]-ethyl}-benzamide]

IC50 (human NMB receptor (BB1); Table 3, N-acyl derivatives): 2500 nM
Compound: Cc1ccc(C(=O)N[C@@](C)(Cc2c[nH]c3ccccc23)C(=O)NCC2(c3ccccn3)CCCCC2)cc1 [Example 33, N-{(S)-2-(1H-Indol-3-yl)-1-methyl-1-[(1-pyridin-2-yl-cyclohexylmethyl)-carbamoyl]-ethyl}-4-methyl-benzamide]

IC50 (human NMB receptor (BB1); Table 3, N-acyl derivatives): 2520 nM
IC50 (human GRP receptor (BB2); Table 3, N-acyl derivatives): > 10000 nM
Compound: CN(C)c1cccc(C(=O)N[C@@](C)(Cc2c[nH]c3ccccc23)C(=O)NCC2(c3ccccn3)CCCCC2)c1 [Example 42, Dimethylamino-N-{(S)-2-(1H-indol-3-yl)-1-methyl-1-[(1-pyridin-2-yl-cyclohexyl-methyl)-carbamoyl]-ethyl}-benzamide]

Compound: (S)-3-(1H-Indol-3-yl)-2-methyl-2-(nitro-trifluoromethyl-benzenesulfonylamino)-N-(1-pyridin-2-yl-cyclohexylmethyl)-propionamide [Example 167]
IC50 (human NMB receptor (BB1); [2]): 758 nM
IC50 (human GRP receptor (BB2); [2]): > 10000 nM
